From paper PMC3274548, “Toward New Therapeutics for Skin and Soft Tissue Infections: Propargyl-Linked Antifolates Are Potent Inhibitors of MRSA and Streptococcus pyogenes” (PLoS ONE, 2012)
In brackets after ≈: the same amount, converted by molar mass. Where two headings read alike, the source gives them in different places.

How the values were obtained:
[1] = test system: MRSA (S.aureus 13709); assay: MIC, broth microdilution with Alamar Blue; assay type: cell-based, Staphylococcus aureus; conditions: for Selectivity MRSA: IC50 (MCF10)/MIC (pathogen), both values in µM; for MIC: Staphylococcus aureus, MRSA
Method: (§1) Stock solutions of standard antibiotics and test compounds were made at 50 mM in DMSO. […] For susceptibility testing, 10 µL of glycerol stock was suspended in a 10 mL shake flask culture of chemically defined Isosensitest broth (Oxoid) supplemented with 2% w/v glucose. A sample of the shake flask culture was diluted to 1×10^6 cells/mL in media and added to 96-well test plates (100 µL per well) containing test compounds dispensed in DMSO (2 µL) using serial two-fold dilutions. After an incubation period (30°C) determined from the strain specific doubling time, a 0.03% w/v aqueous solution of resazurin (10 µL) was added and the plates were allowed to incubate; each well was then scored for dye reduction.

[2] = biological target: T1, Human DHFR (Homo sapiens, UniProt P00374); assay: DHFR enzyme inhibition assay (NADPH oxidation, 340 nm); assay type: biochemical; conditions: human DHFR; average of at least three measurements; read-out: IC50 (nM) Human
T1 sequence (P00374 1-187): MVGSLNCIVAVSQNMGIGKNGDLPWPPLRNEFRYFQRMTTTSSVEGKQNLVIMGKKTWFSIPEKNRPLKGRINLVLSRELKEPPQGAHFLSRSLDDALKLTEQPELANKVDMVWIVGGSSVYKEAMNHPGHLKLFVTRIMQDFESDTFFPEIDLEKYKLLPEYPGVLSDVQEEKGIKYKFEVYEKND
Method: (§2) Enzyme inhibition assays were performed by monitoring the rate of NADPH oxidation by the DHFR enzyme at an absorbance of 340 nm over five minutes. Assays were performed in the presence of saturating concentrations of NADPH (100 µM) and initiated with dihydrofolate (1 mM). All assays were completed at 25°C in a buffer containing 20 mM TES pH 7.0, 50 mM KCl, 10 mM 2-mercaptoethanol, 0.5 mM EDTA and 1 mg/mL BSA. Inhibition was measured at least three times with inhibitor concentrations near the IC50 value and the average IC50 value is reported with a standard deviation.

[3] = test system: MRSA strain ATCC 43300; conditions: selection at ten times the MIC value
Method: Selective plates were grown for 30 hours at 37°C. […] Direct colony PCR was used to isolate and amplify the dfrA gene from resistant strains using methods described in [34]. All PCR products were screened for point mutations in DHFR by high quality DNA sequencing (Genewiz). Primers used to detect the dfrA gene contained restriction enzyme cut sites for NdeI and XhoI in order to ligate PCR products into the pET41 vector for further validation with DNA sequencing with the T7 promoter sequencing primer. Mutation frequencies were calculated based on the sequencing information provided for each mutant colony.

[4] = test system: TMP-SMZ-resistant MRSA strain; assay: MIC against clinical isolates of MRSA; assay type: cell-based; conditions: Staphylococcus aureus, clinical isolate, Table 4, read-out: MIC TMP-SMZ^R
[5] = test system: MCF-10 cells; assay: Mammalian cell toxicity (Alamar Blue); assay type: cell-based; conditions: Homo sapiens, MCF10; cytotoxicity, 4 h incubation; read-out: IC50 MCF-10
Method: Adherent cell lines were maintained in Eagle's Minimal Essential Media (Sigma-Aldrich, St. Louis, MO, USA) with 2 mM glutamine and Earle's Balanced Salt Solution (HyClone, Logan, UT, USA) adjusted to contain 1.5 g/L sodium bicarbonate, 0.1 mM non-essential amino acids, 1 mM sodium pyruvate and 10% fetal calf serum. Fetal calf serum used in these assays was lot matched throughout. […] Toxicity assays were conducted between passages 10–20. Target compound toxicity was measured by incubating the test compound with the cells for 4 h, washing the cells and finally treating the cells with Alamar Blue. After 12–24 h, the fluorescence of the reduced dye was measured. Fluorescence intensity as a function of test compound concentration was fit to the Fermi equation, using non-linear least squares regression analysis, to estimate IC50 values.

[6] = test system: Streptococcus pyogenes; assay: MIC, broth microdilution with Alamar Blue; assay type: cell-based; conditions: for Selectivity S. pyogenes: IC50 (MCF10)/MIC (pathogen), both values in µM; for MIC: Streptococcus pyogenes
Method: as §1

[7] = test system: HA-MRSA; assay: MIC against clinical isolates of MRSA; assay type: cell-based; conditions: Staphylococcus aureus, clinical isolate, read-out: MIC HA-MRSA
[8] = test system: MRSA strain containing the F98Y mutation; assay: MIC against MRSA strain containing the F98Y mutation; assay type: cell-based; conditions: Staphylococcus aureus, read-out: MIC against MRSA strain containing the F98Y mutation
[9] = biological target: S. pyogenes DHFR (Streptococcus pyogenes, UniProt Q9A091); assay: biochemical; assay type: biochemical; conditions: for Selectivity (h/Sp): IC50 (human)/IC50 (pathogen)
Method: (§3) S. aureus DHFR was cloned, expressed and purified as previously described. Briefly, the DHFR gene was inserted into vector pET41 with a His8 tag for purification. The protein was expressed in E. coli BL21 (DE3) cells. […] The protein was concentrated to ∼5 mg/mL. S. pyogenes DHFR was cloned using PCR from genomic DNA and inserted in vector pET-41.
as §2

[10] = biological target: T2, S. aureus DHFR (Staphylococcus aureus, UniProt P0A017); assay: biochemical; assay type: biochemical; conditions: for Selectivity (h/Sa): IC50 (human)/IC50 (pathogen)
T2 construct: the DHFR gene was inserted into vector pET41 with a His8 tag for purification; His8; made in house; host or cells: E. coli BL21 (DE3)
Method: as §3, §2

[11] = test system: USA300 CA-MRSA; assay: MIC against clinical isolates of MRSA; assay type: cell-based, Staphylococcus aureus; conditions: Staphylococcus aureus, clinical isolate, read-out: MIC USA300 CA-MRSA
[12] = test system: VISA Mu50; assay: MIC against clinical isolates of MRSA; assay type: cell-based; conditions: Staphylococcus aureus, read-out: MIC VISA Mu50
[13] = test system: HepG2 cells; assay: Mammalian cell toxicity (Alamar Blue); assay type: cell-based; conditions: Homo sapiens, cytotoxicity, 4 h incubation
Method: Fetal calf serum used in these assays was lot matched throughout. All cultures were maintained under a humidified 5% CO2 atmosphere at 37°C, had media refreshed twice weekly and were subcultured by trypsinization and resuspension at a ratio of 1∶5 each week. Toxicity assays were conducted between passages 10–20. Target compound toxicity was measured by incubating the test compound with the cells for 4 h, washing the cells and finally treating the cells with Alamar Blue. After 12–24 h, the fluorescence of the reduced dye was measured. Fluorescence intensity as a function of test compound concentration was fit to the Fermi equation, using non-linear least squares regression analysis, to estimate IC50 values.

[14] = test system: Staphylococcus aureus subsp. aureus ATCC 44300; assay: MIC and MBC determination (microdilution, plating on Isosensitest agar); assay type: cell-based; conditions: ATCC44300
Text: MBC was defined as the lowest concentration of inhibitor preventing colony growth on agar plates.

[15] = test system: hVISA Mu3; assay: MIC against clinical isolates of MRSA; assay type: cell-based; conditions: Staphylococcus aureus; heteroresistant vancomycin intermediate S. aureus; read-out: MIC hVISA Mu3
[16] = test system: USA100 HA-MRSA; assay: MIC against clinical isolates of MRSA; assay type: cell-based; conditions: Staphylococcus aureus, clinical isolate, read-out: MIC USA100 HA-MRSA
[17] = 10% fetal calf serum, read-out: MIC MRSA +FCS
[18] = 10% fetal calf serum, value in parentheses, read-out: MIC MRSA +FCS
[19] = value in parentheses, read-out: MIC MRSA
[20] = 10% FCS, read-out: MIC S. pyogenes +FCS
[21] = 10% FCS, value in parentheses, read-out: MIC S. pyogenes +FCS
[22] = value in parentheses, read-out: MIC S. pyogenes
[23] = S. aureus DHFR, average of at least three measurements, read-out: IC50 (nM) Sa

T2 sequence (P0A017 whole entry): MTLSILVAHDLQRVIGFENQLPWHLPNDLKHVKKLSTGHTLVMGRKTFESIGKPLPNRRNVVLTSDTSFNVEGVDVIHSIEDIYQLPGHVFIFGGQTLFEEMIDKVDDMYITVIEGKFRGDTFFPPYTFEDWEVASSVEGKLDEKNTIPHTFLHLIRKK
Sequence of S. pyogenes DHFR (Q9A091 entry or part of it): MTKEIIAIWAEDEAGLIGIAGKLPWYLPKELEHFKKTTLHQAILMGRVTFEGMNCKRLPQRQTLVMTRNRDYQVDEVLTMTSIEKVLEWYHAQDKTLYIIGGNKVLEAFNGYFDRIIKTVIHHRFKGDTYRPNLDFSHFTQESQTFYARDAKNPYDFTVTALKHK

| SMILES | Selectivity MRSA [1] | MIC [1, 17] | MIC [1, 18] | MIC [1, 19] | MIC ([1]; read-out: MIC MRSA) | IC50 [2] | MIC [4] | IC50 [5] | Selectivity S. pyogenes [6] | MIC [6, 22] | MIC ([6]; read-out: MIC S. pyogenes) | MIC [7] | MIC ([11]; USA300) | MIC [11] | MIC [12] | IC50 [13] | MIC [15] | MIC ([16]; USA100) | MIC ([16]; first USA100 column) | MIC ([16]; third USA100 column) | also measured |
| --- | --- | --- | --- | --- | --- | --- | --- | --- | --- | --- | --- | --- | --- | --- | --- | --- | --- | --- | --- | --- | --- |
| COc1cc(-c2ccncc2)cc(C(C)C#Cc2c(C)nc(N)nc2N)c1 (stereo not drawn) [Compound 24] | 1,760 | 0.09 µg/mL | 0.25 µM | 0.125 µM | 0.04 µg/mL | 1500 ± 8 nM | 0.045 µg/mL (≈ 0.125 µM) | 220000 nM | 1,760 | 0.125 µM | 0.04 µg/mL | 0.09 µg/mL (≈ 0.25 µM) | 0.09 µg/mL (≈ 0.25 µM) | 0.045 µg/mL (≈ 0.125 µM) | 0.18 µg/mL (≈ 0.501 µM) | 233000 nM | 0.045 µg/mL (≈ 0.125 µM) | 0.045 µg/mL (≈ 0.125 µM) | 2.9 µg/mL (≈ 8.07 µM) | 0.09 µg/mL (≈ 0.25 µM) | resistance frequency [3]: 3.9×10^−10; MIC [6, 20]: 0.09 µg/mL; MIC [6, 21]: 0.25 µM; MIC [8]: 2.5 µg/mL (≈ 6.96 µM); Selectivity (h/Sp) [9]: 9.4; Selectivity (h/Sa) [10]: 58; IC50 [10, 23]: 26 ± 2 nM; MBC [14]: 0.078 µg/mL (≈ 0.217 µM); MIC [14]: 0.078 µg/mL (≈ 0.217 µM) |
| CCc1nc(N)nc(N)c1C#CCc1cccc(-c2ccncc2)c1 [Compound 28] | 1,900 | 0.16 µg/mL | 0.5 µM | 0.25 µM | 0.08 µg/mL | 520 ± 23 nM | 0.045 µg/mL (≈ 0.137 µM) | 475000 nM | 3,800 | 0.125 µM | 0.04 µg/mL | 0.045 µg/mL (≈ 0.137 µM) | 0.045 µg/mL (≈ 0.137 µM) | 0.045 µg/mL (≈ 0.137 µM) | 0.09 µg/mL (≈ 0.273 µM) | > 500000 nM | 0.045 µg/mL (≈ 0.137 µM) | 0.045 µg/mL (≈ 0.137 µM) | 2.9 µg/mL (≈ 8.8 µM) | 0.045 µg/mL (≈ 0.137 µM) | MIC [6, 20]: 0.09 µg/mL; MIC [6, 21]: 0.25 µM; Selectivity (h/Sp) [9]: 17; Selectivity (h/Sa) [10]: 26; IC50 [10, 23]: 20 ± 0.5 nM |
| CCc1nc(N)nc(N)c1C#CCc1cc(OC)cc(-c2ccncc2)c1 [Compound 27] | 3,272 | 0.09 µg/mL | 0.25 µM | 0.125 µM | 0.04 µg/mL | 61 ± 5.7 nM | 0.045 µg/mL (≈ 0.125 µM) | 409000 nM | 3,272 | 0.125 µM | 0.04 µg/mL | 0.045 µg/mL (≈ 0.125 µM) | 0.045 µg/mL (≈ 0.125 µM) | 0.045 µg/mL (≈ 0.125 µM) | 0.18 µg/mL (≈ 0.501 µM) | 465000 nM | 0.045 µg/mL (≈ 0.125 µM) | 0.045 µg/mL (≈ 0.125 µM) | 2.9 µg/mL (≈ 8.07 µM) | 0.045 µg/mL (≈ 0.125 µM) | MIC [6, 20]: 0.09 µg/mL; MIC [6, 21]: 0.25 µM; Selectivity (h/Sp) [9]: 2; IC50 [10]: 12 ± 2.4 nM; Selectivity (h/Sa) [10]: 5 |
| CCc1nc(N)nc(N)c1C#CC(C)c1cc(OC)cc(-c2ccncc2)c1 (stereo not drawn) [Compound 25] | – | – | – | 0.5 µM | 0.09 µg/mL | 1300 ± 11 nM | 0.09 µg/mL (≈ 0.241 µM) | 85000 nM | – | 0.032 µM | 0.012 µg/mL | 0.02 µg/mL (≈ 0.0536 µM) | 0.09 µg/mL (≈ 0.241 µM) | 0.045 µg/mL (≈ 0.12 µM) | 0.09 µg/mL (≈ 0.241 µM) | 171000 nM | 0.09 µg/mL (≈ 0.241 µM) | 0.09 µg/mL (≈ 0.241 µM) | 2.9 µg/mL (≈ 7.77 µM) | 0.09 µg/mL (≈ 0.241 µM) | IC50 [9]: 180 ± 19 nM; IC50 [10]: 19 ± 1 nM; MBC [14]: 0.078 µg/mL (≈ 0.209 µM); MIC [14]: 0.078 µg/mL (≈ 0.209 µM) |
